Consider seven compounds from patent publication US11331314B2, “Amine substituted triazole derivatives and uses thereof” (Bayer Pharma Aktiengesellschaft, priority 2017, dated 2022).

The target in one assay is T1, human V2 receptor (Homo sapiens, UniProt P30518).
T1 construct: expressed in transfected cells; host or cells: CHO K1 (ATCC) expressing firefly luciferase under a CRE-responsive promoter
Description: Cellular in vitro assay for determining vasopressin receptor activity, V2 receptor cell line (CRE-luciferase). Format: cell-based. As to conditions: CHO cell line transfected with the human V2 receptor; agonist [Arg8]-vasopressin at EC50 concentration; read-out: IC50 hV2.

The target of a further assay is human V1a receptor (Homo sapiens, UniProt P37288). Description: Cellular in vitro assay for determining vasopressin receptor activity, V1a receptor cell line (photoprotein luminescence). Format: cell-based. As to conditions: for IC50: CHO cell line transfected with the human V1a receptor, agonist [Arg8]-vasopressin at EC50 concentration, read-out: IC50 hV1a; for ratio IC50 hV2/hV1a: selectivity ratio of the cellular IC50 values. An outline of the steps: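 CHO K1 cells stably expressing human V1a receptor with aequorin photoprotein, loaded overnight with coelenterazine. Compounds preincubated 10 min at various concentrations, then challenged with [Arg^8]-vasopressin at EC50 concentration. Calcium-driven luminescence read immediately; IC50 values derived.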
Chain of human V1a receptor (P37288 whole entry): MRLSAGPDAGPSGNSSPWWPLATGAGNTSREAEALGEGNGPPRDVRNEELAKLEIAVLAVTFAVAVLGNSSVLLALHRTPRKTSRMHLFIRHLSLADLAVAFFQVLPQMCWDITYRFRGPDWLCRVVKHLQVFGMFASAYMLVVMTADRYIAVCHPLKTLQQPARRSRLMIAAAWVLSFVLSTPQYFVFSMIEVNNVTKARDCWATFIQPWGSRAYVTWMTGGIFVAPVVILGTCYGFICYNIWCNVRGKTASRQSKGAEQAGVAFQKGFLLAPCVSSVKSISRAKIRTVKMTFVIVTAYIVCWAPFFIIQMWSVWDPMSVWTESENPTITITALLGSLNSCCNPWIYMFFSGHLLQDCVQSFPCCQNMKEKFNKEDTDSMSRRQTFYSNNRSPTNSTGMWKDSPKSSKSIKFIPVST

Each structure is given as a SMILES string.

T1 sequence (P30518 whole entry): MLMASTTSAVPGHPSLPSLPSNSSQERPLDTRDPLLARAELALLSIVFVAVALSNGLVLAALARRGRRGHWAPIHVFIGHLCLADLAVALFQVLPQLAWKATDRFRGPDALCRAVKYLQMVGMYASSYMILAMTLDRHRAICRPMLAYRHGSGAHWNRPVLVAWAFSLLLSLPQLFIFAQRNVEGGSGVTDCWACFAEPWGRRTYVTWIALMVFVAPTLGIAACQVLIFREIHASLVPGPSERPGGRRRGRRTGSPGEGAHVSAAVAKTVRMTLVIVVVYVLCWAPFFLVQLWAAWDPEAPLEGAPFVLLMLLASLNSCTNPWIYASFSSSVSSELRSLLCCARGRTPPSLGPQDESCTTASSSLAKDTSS

`CS(=O)(=O)NCCNc1nc(Cn2nc(-c3ccc(Cl)cc3)n(C[C@H](O)C(F)(F)F)c2=O)nn1-c1ccccc1Cl` [Example 24, N-(2-{[1-(2-Chlorophenyl)-3-({3-(4-chlorophenyl)-5-oxo-4-[(2S)-3,3,3-trifluoro-2-hydroxypropyl]-4,5-dihydro-1H-1,2,4-triazol-1-yl}methyl)-1H-1,2,4-triazol-5-yl]amino}ethyl)methanesulfonamide]: the IC50 at human V2 receptor came to 1020 pM. For the same compound, on human V1a receptor, the IC50 turned out to be 400 pM and the “ratio IC50 hV2/hV1a” value is recorded as 2.6.
For `O=c1n(Cc2nc(NCCN3CCCCS3(=O)=O)n(-c3ccccc3Cl)n2)nc(-c2ccc(Cl)cc2)n1C[C@H](O)C(F)(F)F` [Example 25, 5-(4-Chlorophenyl)-2-{[1-(2-chlorophenyl)-5-{[2-(1,1-dioxido-1,2-thiazinan-2-yl)ethyl]amino}-1H-1,2,4-triazol-3-yl]methyl}-4-[(2S)-3,3,3-trifluoro-2-hydroxypropyl]-2,4-dihydro-3H-1,2,4-triazol-3-one], in that order: 860 pM, 430 pM and 2.0.
For `CC(C)(CNc1nc(Cn2nc(-c3ccc(Cl)cc3)n(C[C@H](O)C(F)(F)F)c2=O)nn1-c1ccccc1Cl)NS(C)(=O)=O` [Example 26] the same measures were 2200 pM, 400 pM and 5.6.
In the case of `O=c1n(Cc2nc(N3CCC(O)(C(F)(F)F)CC3)n(-c3ccccc3Cl)n2)nc(-c2ccc(Cl)cc2)n1C[C@H](O)C(F)(F)F` [Example 28, 5-(4-Chlorophenyl)-2-({1-(2-chlorophenyl)-5-[4-hydroxy-4-(trifluoromethyl)piperidin-1-yl]-1H-1,2,4-triazol-3-yl}methyl)-4-[(2S)-3,3,3-trifluoro-2-hydroxypropyl]-2,4-dihydro-3H-1,2,4-triazol-3-one], on human V2 receptor, the IC50 amounted to 10000 pM. For the same compound, on human V1a receptor, the IC50 was 660 pM and the “ratio IC50 hV2/hV1a” value worked out at 15.3.
For `CC(C)(N)CNc1nc(Cn2nc(-c3ccc(Cl)cc3)n(C[C@H](O)C(F)(F)F)c2=O)nn1-c1ccccc1Cl` [Example 32, 2-({5-[(2-Amino-2-methylpropyl)amino]-1-(2-chlorophenyl)-1H-1,2,4-triazol-3-yl}methyl)-5-(4-chlorophenyl)-4-[(2S)-3,3,3-trifluoro-2-hydroxypropyl]-2,4-dihydro-3H-1,2,4-triazol-3-one] the same measures were 24800 pM, 350 pM and 71.2.
For `O=c1n(Cc2nc(N3CCC(F)(F)CC3)n(-c3ccccc3Cl)n2)nc(-c2ccc(Cl)cc2)n1C[C@H](O)C(F)(F)F` [Example 34, 5-(4-Chlorophenyl)-2-{[1-(2-chlorophenyl)-5-(4,4-difluoropiperidin-1-yl)-1H-1,2,4-triazol-3-yl]methyl}-4-[(2S)-3,3,3-trifluoro-2-hydroxypropyl]-2,4-dihydro-3H-1,2,4-triazol-3-one], in that order: 8750 pM, 460 pM and 19.0.
For `O=C1NCC2(CN(c3nc(Cn4nc(-c5ccc(Cl)cc5)n(C[C@H](O)C(F)(F)F)c4=O)nn3-c3ccccc3Cl)C2)N1` [Example 35, 2-[1-(2-Chlorophenyl)-3-({3-(4-chlorophenyl)-5-oxo-4-[(2S)-3,3,3-trifluoro-2-hydroxypropyl]-4,5-dihydro-1H-1,2,4-triazol-1-yl}methyl)-1H-1,2,4-triazol-5-yl]-2,5,7-triazaspiro[3.4]octan-6-one] the same measures were 6050 pM, 480 pM and 12.6.

In general, IC50 refers to the concentration at which inhibition is half-maximal.
